Data published in PubChem BioAssay (NCI).
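The compound was tested at five concentrations on cells cultured in 96-well plates, with a 48-hour exposure period. Abbreviation: GI50, concentration required for 50% inhibition of growth. TGI: concentration producing complete growth inhibition.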

Key:
Assay in all cases: growth of human tumour cells (NCI), 48 h
[1] = system: CAKI-1 renal
[2] = system: 786-0 renal
[3] = system: MDA-MB-231 breast
[4] = system: HL-60(TB) leukemia
[5] = system: NCI-H226 lung
[6] = system: M14 melanoma
[7] = system: HS 578T breast
[8] = system: T-47D breast
[9] = system: BT-549 breast
[10] = system: RPMI-8226 leukemia

SMILES	GI50 [1] [µM]	TGI [1] [µM]	GI50 [2] [µM]	TGI [2] [µM]	GI50 [3] [µM]	TGI [3] [µM]	GI50 [4] [µM]	TGI [4] [µM]	GI50 [5] [µM]	TGI [5] [µM]	GI50 [6] [µM]	TGI [6] [µM]	GI50 [7] [µM]	TGI [7] [µM]	GI50 [8] [µM]	TGI [8] [µM]	GI50 [9] [µM]	TGI [9] [µM]	GI50 [10] [µM]	TGI [10] [µM]
O=P(O)(O)OCC1OC(n2cnc3c(NCc4ccccc4)ncnc32)C(O)C1O (configuration not stated)	1.4	14.3	2.83	> 67.6	0.35	1.35	0.346	> 100	2.26	6.48	2.68	> 100	1.02	6.1	1.37	10.3	0.473	2.49	3.97	> 52.1
CC(C)c1ccc(NC(=O)Cc2ccc(Nc3ncnc4cc(-c5cnn(CCN(C)C)c5)ccc34)cc2)cc1	1.18	2.88	1.63	3.96	1.44	3.14	2.84	> 10	> 10	> 10	1.28	2.97	0.795	4.66	1.38	3.73	3.96	> 10	1.95	4.75
CCn1c(-c2nonc2N)nc2c(N3CCCC3)nccc21	13.4	> 25	> 18.6	> 25	> 18.8	> 25	24.9	> 25	10	> 25	24.5	> 25	> 19.4	> 25	20.4	> 25	> 21.8	> 25	16.5	> 25
COc1ccc(-c2cc(=O)c3c(O)c(OC)c(OC)c(OC)c3o2)cc1	–	> 100	–	> 100	–	> 72	–	> 100	–	> 100	–	> 100	–	> 93.7	–	> 100	–	> 100	–	> 100
CC(SCc1ccccc1)C(=O)O (configuration not stated)	–	> 100	–	> 100	–	> 100	–	> 100	–	> 100	–	> 100	–	> 100	–	> 100	–	> 100	–	> 100
CC[C@H](C)[C@H](NC(=O)c1cccn1C)C(=O)N(C)[C@H](C[C@@H](OC(C)=O)c1nc(C(=O)N[C@@H](Cc2ccccc2)C[C@H](C)C(=O)OC)cs1)C(C)C	–	–	0.172	> 15.8	0.364	5.75	0.076	0.208	1.17	> 33.3	0.131	0.832	0.226	> 31.2	0.0946	> 33.3	0.155	2.48	0.129	> 18.8
O=C1NC(c2ccccc2)C2(C(=O)O)CN(C3CC3)c3cc(N4CCNCC4)c(F)cc3C2N1 (configuration not stated)	> 100	> 100	> 100	> 100	> 100	> 100	> 100	> 100	> 100	> 100	–	–	> 100	> 100	> 100	> 100	> 100	> 100	> 100	> 100
C=C1C(=O)O[C@H]2C[C@@H]1C(=O)CC(C)CCCC(C)=CCC[C@@]2(C)O (some centres not stated)	–	–	–	> 25	–	> 25	–	> 25	–	> 25	–	> 25	–	> 25	–	> 25	–	> 25	–	> 25
CN(C)CCCNc1nc2ccccc2c2[nH]c3ccccc3c12	1.09	3.01	0.958	5.2	0.907	2.16	1.05	2.49	1.26	4.22	1.11	2.46	3.04	9.61	5.18	16.5	1.86	5.35	0.811	1.95
CS(=O)(=O)N(c1cc(-c2ccc3ncnc(Nc4ccc(F)c(Cl)c4)c3c2)cnc1Cl)S(C)(=O)=O	0.553	3.98	1.58	> 26.4	1.75	9.65	0.49	5.35	1.9	24.3	1.17	11.9	0.218	2.61	0.13	1.8	0.638	5.06	0.826	3.98
CN1CCN(CCCOc2cc(O)c3c(=O)cc(-c4ccccc4)oc3c2)CC1	15.1	33.4	20.6	43.3	16.3	31.7	19.1	39.5	19.5	37	–	–	23	52.9	28	79.2	21.1	46	21.3	55.2
COCCNc1cncc(C(N)=O)c1	–	> 100	–	> 100	–	> 100	–	> 100	–	> 100	–	> 100	–	> 100	–	> 100	–	> 100	–	–
